2 compounds from ChEMBL document CHEMBL1149032, “Two new cytotoxic peroxide-containing acids from a New Guinea sponge, Callyspongia sp” (1994) can be followed below.

SMILES strings stand for the structures. ≈ marks a conversion by molar mass, not a printed value.

In this experiment the test system is P388. Nature of the experiment: Cytotoxicity against mouse P388 cells. Type of experiment: functional. The conditions noted are these: read-out: ED50 (the source's name).

For the compound `C/C=C1/C[C@](CC)(CCCC)OO[C@H]1CC(=O)O`, the EC50 is 5.5 µg/mL (≈ 21.5 µM).

As to `CCCCC1(CC)C[C@@H](CC)[C@H](CC(=O)O)OO1` (some centres not stated), the EC50 was determined as 2.6 µg/mL (≈ 10.1 µM).
